Measurements from the supplement of paper PMC8253809.

Tests used:
DIPGX29 [1] = H3.3 K27M diffuse intrinsic pontine glioma line; test: EC50 (inflection of fitted growth-inhibition curve) (log10 M)
Method in brief: (§1)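 EC50 and maximal response (yFin) were derived from the lowest-AICc fit, either three- or four-parameter log-logistic. The data were pooled CellTiter-Glo luminescence values, log2-transformed and normalised per plate to % activity between negative (solvent) and positive controls. Patient-derived pHGG/DIPG cell lines and astrocyte controls on 1% Geltrex-coated 384-well plates received a 10-point threefold dilution series (mean top concentration 35 μM) by pin tool, in triplicate, for 7 days (iAstro 3 days) at 37 °C, 5% CO2.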

DIPGX37 [2] = H3.3 K27M diffuse intrinsic pontine glioma line; test: as above
Method in brief: as §1

HGGX39 [3] = paediatric high-grade glioma line; test: as above
Method in brief: as §1

HGGX6 [4] = H3.3 G34R paediatric high-grade glioma line; test: as above
Method in brief: as §1

DIPGX29 [5] = test: maximal growth inhibition (yFin) relative to DMSO / staurosporine; higher = more efficacious
Method in brief: as §1

DIPGX37 [6] = test: as above
Method in brief: as §1

HGGX39 [7] = test: as above
Method in brief: as §1

HGGX6 [8] = test: as above
Method in brief: as §1

DIPGX29 [9] = test: area under dose-response curve of % growth inhibition (log2 RLU vs DMSO / staurosporine), 1e-11 to 1e-4 M (% x log10 M); higher = more growth inhibition
Method in brief: (§2)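 Cells were exposed in triplicate for 7 days (iAstro: 3 days) at 37 °C, 5% CO2 to a 10-point series of threefold dilutions with a mean top concentration of 35 μM. These were patient-derived pHGG/DIPG lines plus astrocytes, grown on 384-well plates coated with 1% Geltrex. Readout was CellTiter-Glo luminescence, log2-transformed and set per plate to % activity between solvent and positive controls, from which area under the curve was derived by trapezoid rule on a log-logistic fit or, failing that, a smoothing spline.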

DIPGX37 [10] = test: as above
Method in brief: as §2

HGGX39 [11] = test: as above
Method in brief: as §2

HGGX6 [12] = test: as above
Method in brief: as §2

Structure (SMILES)	EC50 (log10 M) (DIPGX29 [1])	EC50 (log10 M) (DIPGX37 [2])	EC50 (log10 M) (HGGX39 [3])	EC50 (log10 M) (HGGX6 [4])	maximal growth inhibition (DIPGX29 [5]) [%]	maximal growth inhibition (DIPGX37 [6]) [%]	maximal growth inhibition (HGGX39 [7]) [%]	maximal growth inhibition (HGGX6 [8]) [%]	area under dose-response curve (DIPGX29 [9])	area under dose-response curve (DIPGX37 [10])	area under dose-response curve (HGGX39 [11])	area under dose-response curve (HGGX6 [12])
COc1ccccc1-c1cc(Nc2cccc(CS(N)(=O)=O)c2)ncn1	-4.82	-4.68	-4.84	-4.83	71.9	59.7	48.3	65.7	58.4	39.8	40.5	54.4
Cc1nc(Nc2n[nH]c3c2CN(C(=O)N[C@H](CN(C)C)c2ccccc2)C3(C)C)c2sccc2n1	-5.45	-5.56	-5.22	-5.66	77.2	80.1	79.6	75.5	150	177	120	174
O=C1NCCc2[nH]c(-c3ccncc3)cc21	-5.62	-5.9	-5.41	-5.81	67.8	58.9	71.2	65.9	110	111	98.2	124
COc1cc2c(cc1O)CC[C@@H]1[C@@H]2CC[C@]2(C)[C@@H](O)CC[C@@H]12 [2-METHOXYESTRADIOL]	-5.23	-4.96	-4.89	-5.65	22.8	36.4	53	23.6	40.9	48.8	47.3	38.9
Nc1c2ccccc2nc2ccccc12 [9-AMINOACRIDINE]	-4.84	-4.83	-4.83	-4.82	71	85.8	89.5	80.2	59.1	70.3	74	65.1
CC[C@@]1(O)C[C@H](O[C@H]2C[C@H](N(C)C)[C@H](O[C@H]3C[C@H](O)[C@H](O[C@H]4CCC(=O)[C@H](C)O4)[C@H](C)O3)[C@H](C)O2)c2c(cc3c(c2O)C(=O)c2c(O)cccc2C3=O)[C@H]1C(=O)OC [ACLARUBICIN]	-5.38	-6.79	-5.35	-5.33	58.7	62.1	65.6	62.1	96.6	173	118	111
CCCCC(CC)CNC(=N)NC(=N)NCCCCCCNC(=N)NC(=N)NCC(CC)CCCC (stereo not given) [ALEXIDINE]	-6.06	-5.67	-5.64	-5.48	63.3	78.2	80.3	73.3	130	126	126	105
CCCCc1oc2ccccc2c1C(=O)c1cc(I)c(OCCN(CC)CC)c(I)c1 [AMIODARONE]	-4.79	-4.76	-4.83	-4.8	80	83	89.3	78.8	63.6	63.2	74.6	63
CCOC(=O)C1=C(COCCN)NC(C)=C(C(=O)OC)C1c1ccccc1Cl (stereo not given) [AMLODIPINE]	-4.86	-4.82	-4.83	-4.75	80.4	88	91.4	85.6	69.2	72.4	75.8	64.5
CCC(C)(C)c1ccc(CC(C)CN2C[C@@H](C)O[C@@H](C)C2)cc1 (stereo not given in full) [AMOROLFINE]	-5.09	-5.29	-5.11	-5.36	33.2	48	72.1	41.6	47.6	62.1	103	58.4
C[C@@H](O[C@H]1OCCN(Cc2n[nH]c(=O)[nH]2)[C@H]1c1ccc(F)cc1)c1cc(C(F)(F)F)cc(C(F)(F)F)c1 [APREPITANT]	-4.8	-4.81	-4.81	-4.81	85.5	81.7	80	72.7	76.6	66.2	64.5	58.5
CC[C@H](CC#N)OC(=O)N[C@@H](C)c1cccc(NC(=O)Nc2ccc(-c3cnco3)c(OC)c2)c1 [AVN-944]	-6.32	-6.4	-5.67	-5.95	34.3	35.2	39.3	27.9	79.5	84.4	54.3	48
CNC(=O)c1ccccc1Sc1ccc2c(/C=C/c3ccccn3)n[nH]c2c1 [AXITINIB]	-6.07		-5.96	-6.35	21.1		23.3	28.6	45.4	55.3	46.3	67.6
O=C1COc2c(CCNCCN(C(=O)CCNCCc3ccc(Cl)c(Cl)c3)C3CCCCC3)ccc(O)c2N1 [AZ505]	-4.86	-4.56	-4.82	-4.83	82.3	60.3	61.1	74.2	70.9	33.8	49.1	61.6
COc1cc(OC2CCN(C)CC2)ccc1Nc1ncc2c(n1)n(C1CCCC1)c(=O)n2C [AZ3146]	-4.86	-4.79	-4.85	-4.82	103	110	105	96.5	92.5	86.8	88.5	86.9
Nc1nc2n[nH]nc2c(=O)[nH]1 [AZAGUANINE-8]	-5.14	-5.07	-5.31	-5.25	38.3	53.8	54.2	25.9	45	58.7	74.2	31.2
